Measured values as given in US20230312473A1, “PROCESS FOR THE PREPARATION OF BIHETEROARYL COMPOUNDS AND CRYSTAL FORMS THEREOF” (Genentech, Inc., priority 2020, published 2023).
Like-named read-outs stand apart in the source and are kept apart here.

Test: Solubility of compound 1 in the solvent under evaluation at 22° C. and 65° C. (crystallization study)
Assay type: physicochemical
Protocol: Crystalline compound 1 was evaluated. Crystallization study procedures were done based on the solubility of compound 1 in the solvent under evaluation as follows.
The results are presented below in Table 10 where: * refers to compound 1 prepared as described above; and ** refers to compound 1 prepared as described above and further incubated at 100% relative humidity at 22° C. for 17 days.

What does the source list for Nc1ncc(-c2cc(N3C[C@@H]4C[C@H]3CO4)nc(N3CCC(F)(F)C3)n2)cc1OC(F)F [Compound 1, 5-(6-((1S,4S)-2-oxa-5-azabicyclo[2.2.1]heptan-5-yl)-2-(3,3-difluoropyrrolidin-1-yl)pyrimidin-4-yl)-3-(difluoromethoxy)pyridin-2-amine]?
solubility (2-methyl THF, 22 °C, organic solvent or mixture, thermodynamic from solid, solvent: 2-methyl THF, read-out: Solubility at 22° C.): < 50 mg/mL; solubility (2-methyl THF, 65 °C, organic solvent or mixture, solvent: 2-methyl THF, read-out: Solubility at 65° C.): > 50 mg/mL; solubility (5% water in ethanol, 22 °C, organic solvent or mixture, thermodynamic from solid, solvent: 5% water in ethanol, read-out: Solubility at 22° C.): < 50 mg/mL; solubility (5% water in ethanol, 65 °C, organic solvent or mixture, solvent: 5% water in ethanol, read-out: Solubility at 65° C.): < 50 mg/mL; solubility (5% water in isopropanol, 22 °C, organic solvent or mixture, thermodynamic from solid, solvent: 5% water in isopropanol, read-out: Solubility at 22° C.): < 50 mg/mL; solubility (5% water in isopropanol, 65 °C, organic solvent or mixture, solvent: 5% water in isopropanol, read-out: Solubility at 65° C.): < 50 mg/mL; solubility (5% water in methanol, 22 °C, organic solvent or mixture, thermodynamic from solid, solvent: 5% water in methanol, read-out: Solubility at 22° C.): < 50 mg/mL; solubility (5% water in methanol, 65 °C, organic solvent or mixture, solvent: 5% water in methanol, read-out: Solubility at 65° C.): < 50 mg/mL; solubility (5% water in propanol, 22 °C, organic solvent or mixture, thermodynamic from solid, solvent: 5% water in propanol, read-out: Solubility at 22° C.): < 50 mg/mL; solubility (5% water in propanol, 65 °C, organic solvent or mixture, solvent: 5% water in propanol, read-out: Solubility at 65° C.): < 50 mg/mL; solubility (15% water in THF, 22 °C, organic solvent or mixture, thermodynamic from solid, solvent: 15% water in THF, read-out: Solubility at 22° C.): > 50 mg/mL; solubility (15% water in acetone, 22 °C, organic solvent or mixture, thermodynamic from solid, solvent: 15% water in acetone, read-out: Solubility at 22° C.): < 50 mg/mL; solubility (15% water in acetone, 65 °C, organic solvent or mixture, thermodynamic from solid, solvent: 15% water in acetone, read-out: Solubility at 65° C.): > 50 mg/mL; solubility (15% water in ethanol, 22 °C, organic solvent or mixture, thermodynamic from solid, solvent: 15% water in ethanol, read-out: Solubility at 22° C.): < 50 mg/mL; solubility (15% water in ethanol, 65 °C, organic solvent or mixture, thermodynamic from solid, solvent: 15% water in ethanol, read-out: Solubility at 65° C.): < 50 mg/mL; solubility (15% water in isopropanol, 22 °C, organic solvent or mixture, thermodynamic from solid, solvent: 15% water in isopropanol, read-out: Solubility at 22° C.): < 50 mg/mL; solubility (15% water in isopropanol, 65 °C, organic solvent or mixture, thermodynamic from solid, solvent: 15% water in isopropanol, read-out: Solubility at 65° C.): < 50 mg/mL; solubility (15% water in methanol, 22 °C, organic solvent or mixture, thermodynamic from solid, solvent: 15% water in methanol, read-out: Solubility at 22° C.): < 50 mg/mL; solubility (15% water in methanol, 65 °C, organic solvent or mixture, solvent: 15% water in methanol, read-out: Solubility at 65° C.): < 50 mg/mL; solubility (15% water in propanol, 22 °C, organic solvent or mixture, thermodynamic from solid, solvent: 15% water in propanol, read-out: Solubility at 22° C.): < 50 mg/mL; solubility (15% water in propanol, 65 °C, organic solvent or mixture, solvent: 15% water in propanol, read-out: Solubility at 65° C.): < 50 mg/mL; solubility (20% water in acetonitrile, 22 °C, organic solvent or mixture, thermodynamic from solid, solvent: 20% water in acetonitrile, read-out: Solubility at 22° C.): < 50 mg/mL; solubility (20% water in acetonitrile, 65 °C, organic solvent or mixture, solvent: 20% water in acetonitrile, read-out: Solubility at 65° C.): > 50 mg/mL; solubility (50% water in acetonitrile, 22 °C, aqueous with cosolvent or surfactant or cyclodextrin, thermodynamic from solid, solvent: 50% water in acetonitrile, read-out: Solubility at 22° C.): < 50 mg/mL; solubility (50% water in acetonitrile, 65 °C, aqueous with cosolvent or surfactant or cyclodextrin, solvent: 50% water in acetonitrile, read-out: Solubility at 65° C.): < 50 mg/mL; solubility (50% water in ethanol, 22 °C, aqueous with cosolvent or surfactant or cyclodextrin, thermodynamic from solid, solvent: 50% water in ethanol, read-out: Solubility at 22° C.): < 50 mg/mL; solubility (50% water in ethanol, 65 °C, aqueous with cosolvent or surfactant or cyclodextrin, solvent: 50% water in ethanol, read-out: Solubility at 65° C.): < 50 mg/mL; solubility (50% water in isopropanol, 22 °C, aqueous with cosolvent or surfactant or cyclodextrin, thermodynamic from solid, solvent: 50% water in isopropanol, read-out: Solubility at 22° C.): < 50 mg/mL; solubility (50% water in isopropanol, 65 °C, aqueous with cosolvent or surfactant or cyclodextrin, solvent: 50% water in isopropanol, read-out: Solubility at 65° C.): < 50 mg/mL; solubility (50% water in methanol, 22 °C, aqueous with cosolvent or surfactant or cyclodextrin, thermodynamic from solid, solvent: 50% water in methanol, read-out: Solubility at 22° C.): < 50 mg/mL; solubility (50% water in methanol, 65 °C, aqueous with cosolvent or surfactant or cyclodextrin, solvent: 50% water in methanol, read-out: Solubility at 65° C.): < 50 mg/mL; solubility (50% water in propanol, 22 °C, aqueous with cosolvent or surfactant or cyclodextrin, thermodynamic from solid, solvent: 50% water in propanol, read-out: Solubility at 22° C.): < 50 mg/mL; solubility (50% water in propanol, 65 °C, aqueous with cosolvent or surfactant or cyclodextrin, solvent: 50% water in propanol, read-out: Solubility at 65° C.): < 50 mg/mL; solubility (80% water in acetonitrile, 22 °C, aqueous with cosolvent or surfactant or cyclodextrin, thermodynamic from solid, solvent: 80% water in acetonitrile, read-out: Solubility at 22° C.): < 50 mg/mL; solubility (80% water in acetonitrile, 65 °C, aqueous with cosolvent or surfactant or cyclodextrin, solvent: 80% water in acetonitrile, read-out: Solubility at 65° C.): < 50 mg/mL; solubility (Acetic acid, 22 °C, organic solvent or mixture, thermodynamic from solid, solvent: Acetic acid, read-out: Solubility at 22° C.): > 100 mg/mL; solubility (Acetonitrile, 22 °C, organic solvent or mixture, thermodynamic from solid, solvent: Acetonitrile, read-out: Solubility at 22° C.): < 50 mg/mL; solubility (Acetonitrile, 65 °C, organic solvent or mixture, solvent: Acetonitrile, read-out: Solubility at 65° C.): > 50 mg/mL; solubility (Chloroform, 22 °C, organic solvent or mixture, thermodynamic from solid, solvent: Chloroform, read-out: Solubility at 22° C.): < 50 mg/mL; solubility (Chloroform, 65 °C, organic solvent or mixture, solvent: Chloroform, read-out: Solubility at 65° C.): > 50 mg/mL; solubility (DMA, 22 °C, organic solvent or mixture, thermodynamic from solid, solvent: DMA, read-out: Solubility at 22° C.): > 200 mg/mL; solubility (DMF, 22 °C, organic solvent or mixture, thermodynamic from solid, solvent: DMF, read-out: Solubility at 22° C.): > 100 mg/mL; solubility (DMSO, 22 °C, organic solvent or mixture, thermodynamic from solid, solvent: DMSO, read-out: Solubility at 22° C.): > 100 mg/mL; solubility (Dichloromethane, 22 °C, organic solvent or mixture, thermodynamic from solid, solvent: Dichloromethane, read-out: Solubility at 22° C.): < 50 mg/mL; solubility (Dichloromethane, 65 °C, organic solvent or mixture, solvent: Dichloromethane, read-out: Solubility at 65° C.): > 50 mg/mL
